Results taken from US20060057732A1, “Methods in the diagnosis of pulmonary embolism” (Aerocrine AB, priority 2004, published 2006).

Key:
NO-production = test: L-NAME pre-treatment (inhibited NO-production) before and during muscle emboli challenge in anaesthetised rabbits (Group 2); assay type: in vivo
Description: The experiments were approved by the local animal ethics committee. Male white New Zealand rabbits (n=20, body weight 2.456±0.086 kg) were anaesthetised via an ear vein with sodium pentobarbital, 6 mg ml^−1 in normal saline, 40-60 mg kg^−1. The animals were placed in supine position and tracheotomised just below the cricoid cartilage to allow mechanical ventilation using a tracheal cannula with an outer diameter of 5 mm. The animals were ventilated by a Harvard Apparatus rodent ventilator (model 683, Harvard Apparatus, South Natick, Mass., USA). The ventilator was supplied with NO-free air using a charcoal filter (110×11 cm). Ventilation rate was 40 min^−1 at constant volume where the tidal volume was initially adjusted to keep the end-tidal CO2 at 4.5-5.3% as determined by a ventilatory monitor (Oscar-Oxy, Datex, Helsinki, Finland) sampling gas (150 ml min^−1, 15-20% of minute ventilation) from one of two side-arms connected to the tracheal cannula, and using a de-humidifying tube. The minute ventilation was 0.64-0.96 l min^−1. To the other side arm a pressure transducer (Statham, Hato Rey, Puerto Rico) was connected thus monitoring the insufflation pressure. The gas from the ventilator outlet was led through a switching valve to either of two beakers creating a positive end-expiratory pressure (PEEP) of 1-2 cmH2O or 4-5 cmH2O. During the experiment the gas flow was altered between the lower PEEP (9 min) and the higher PEEP (1 min) with an interval of totally 10 min. A continuous infusion containing glucose (24.3 g l^−1), dextran 70 (26.5 g l^−1), NaHCO3 (6,2 g l^−1), sodium pentobarbital (4.1 g l^−1) and pancuronium bromide ([…]) was administrated at a rate of 5 ml kg^−1 h^−1 via the same ear vein by means of a Terumo STC-521 syringe pump (Terumo Corp., Tokyo, Japan). A heparinised catheter was inserted in the left common carotid artery for blood pressure and heart rate recordings (pressure transducer, Staham, Hato Rey, Puerto Rico), and arterial blood sampling. Another catheter was inserted in the right jugular vein for drug and muscle emboli administration. Body temperature was maintained at 37-38.5° C. by means of a heating pad connected to a thermostat. The muscles from the anterior compartment of the right lower hind limb were resected and placed in normal saline. Hereafter the animals were allowed a 30-60 min intervention-free period to obtain stable circulatory conditions and stable concentrations of expired NO.
NO concentration, in mixed exhaled gas, was continuously measured by means of a chemiluminescence based system (NIOX®, AEROCRINE AB, Solna, Sweden) sampling at 100 ml min^−1 at the end of a mixing chamber connected to the ventilator exhaust. The full mixing of expired air thus measured on was intermittently checked by monitor CO2 concentration in the same chamber. In a few experiments, gas for NO measurement was sampled from the trachea at the same point as for tidal CO2 measurements, thus yielding breath by breath NO concentrations. Calibration was done using certified NO standard gas in nitrogen (AGA Specialgas, Lidingö, Sweden).
The resected muscle tissue was cleared from all visible connective tissue and then homogenized and dissolved in normal saline to a concentration of 0,1 g muscle ml^−1. 50 IE heparin was added to the mixture. The homogenate was filtered through a filter (500 μm) to prevent clotting in the three way stop-cock.
The animals were divided into two groups; 1) one group receiving a high dose (58-120 mg kg^−1) muscle homogenate and 2) a second group receiving the nitric oxide inhibitor L-NAME (30 mg kg^−1) 40 min before challenge with lower doses (30 to 7.5 mg kg^−1) muscle homogenate, since initial pilot experiments indicated a marked enhancement of emboli effects after L-NAME pre-treatment. […]

[1] = Thrombin infusion as pro-thrombotic challenge; assay type: in vivo, rabbit; details: thrombin 10-250 Units; when cardiovascular parameters indicated a thrombotic event
Description: Another experiment was performed with infusion of thrombin (10-250 Units) as pro-thrombotic challenge. Also in this experiment, an increase in exhaled NO was obtained when measurement of cardiovascular parameters indicated an activation of a thrombotic event.

[2] = Group 2, during L-NAME pre-treatment, time -5 min, before challenge

| Compound | PaCO2 (NO-production; [2]) [kPa] | PaO2 (NO-production; [2]) [kPa] | pH (arterial) (NO-production; [2]) | ETCO2 after L-NAME infusion (NO-production; L-NAME 30 mg kg-1, before muscle emboli challenge (time=-5), before L-NAME 4.9±0.1) [kPa] | FENO after L-NAME infusion (NO-production; L-NAME 30 mg kg-1, before muscle emboli challenge (time=-5), before L-NAME 20.9±1.0 ppb, n=4) [ppb] | MAP after L-NAME infusion (NO-production; L-NAME 30 mg kg-1, before muscle emboli challenge (time=-5), before L-NAME 105±6) [cmH2O] | HR after L-NAME infusion (NO-production; L-NAME 30 mg kg-1, before muscle emboli challenge (time=-5), before L-NAME 286±11) [beats min^-1] | ETCO2, lowest observed value (NO-production; L-NAME 30 mg kg-1 pre-treatment + muscle emboli infusion, at 4 min, n=4 incl. dead animals) [kPa] | MAP, first drop (NO-production; L-NAME 30 mg kg-1 pre-treatment + muscle emboli infusion, at 12 min) [cmH2O] | MAP, lowest observed value (NO-production; L-NAME 30 mg kg-1 pre-treatment + muscle emboli infusion, at 60 min) [cmH2O] | HR change (NO-production; L-NAME 30 mg kg-1 pre-treatment + muscle emboli infusion, not significant) | Survival after muscle emboli infusion (NO-production; L-NAME 30 mg kg-1 pre-treatment, 7.5 to 30 mg kg-1 homogenate, four rabbits) | exhaled NO change [1] |
| --- | --- | --- | --- | --- | --- | --- | --- | --- | --- | --- | --- | --- | --- |
| COC(=O)[C@@H](N)CCCNC(=N)N[N+](=O)[O-] [L-NAME, N^G-nitro-L-arginine methyl ester] | 4.3 ± 0.2 | 8.6 ± 0.6 | 7.50 ± 0.02 | 4.8±0.2 | 0 | 121±8.2 | 314±34 | 2.6±1.1 | 52.4±25.5 | 44.4±29.6 | decreased | two animals survived 60 min | – |
| thrombin | – | – | – | – | – | – | – | – | – | – | – | – | increase |
